How the values were obtained:
PIK3CB (Human) = PIK3CB (Human) (UniProt P42338); test: Enzyme Assay
PIK3CD (Human) [1] = target: PIK3CD (Human) (UniProt O00329); test: Enzyme Assay
PIK3CG (human) = PIK3CG (human) (UniProt P48736); test: Enzyme Assay
PIK3CD (Human) [2] = target: PIK3CD (Human) (UniProt O00329); test: Cell-Based Assay; details: raji

Chain of PIK3CG (human) (P48736 whole entry, looked up): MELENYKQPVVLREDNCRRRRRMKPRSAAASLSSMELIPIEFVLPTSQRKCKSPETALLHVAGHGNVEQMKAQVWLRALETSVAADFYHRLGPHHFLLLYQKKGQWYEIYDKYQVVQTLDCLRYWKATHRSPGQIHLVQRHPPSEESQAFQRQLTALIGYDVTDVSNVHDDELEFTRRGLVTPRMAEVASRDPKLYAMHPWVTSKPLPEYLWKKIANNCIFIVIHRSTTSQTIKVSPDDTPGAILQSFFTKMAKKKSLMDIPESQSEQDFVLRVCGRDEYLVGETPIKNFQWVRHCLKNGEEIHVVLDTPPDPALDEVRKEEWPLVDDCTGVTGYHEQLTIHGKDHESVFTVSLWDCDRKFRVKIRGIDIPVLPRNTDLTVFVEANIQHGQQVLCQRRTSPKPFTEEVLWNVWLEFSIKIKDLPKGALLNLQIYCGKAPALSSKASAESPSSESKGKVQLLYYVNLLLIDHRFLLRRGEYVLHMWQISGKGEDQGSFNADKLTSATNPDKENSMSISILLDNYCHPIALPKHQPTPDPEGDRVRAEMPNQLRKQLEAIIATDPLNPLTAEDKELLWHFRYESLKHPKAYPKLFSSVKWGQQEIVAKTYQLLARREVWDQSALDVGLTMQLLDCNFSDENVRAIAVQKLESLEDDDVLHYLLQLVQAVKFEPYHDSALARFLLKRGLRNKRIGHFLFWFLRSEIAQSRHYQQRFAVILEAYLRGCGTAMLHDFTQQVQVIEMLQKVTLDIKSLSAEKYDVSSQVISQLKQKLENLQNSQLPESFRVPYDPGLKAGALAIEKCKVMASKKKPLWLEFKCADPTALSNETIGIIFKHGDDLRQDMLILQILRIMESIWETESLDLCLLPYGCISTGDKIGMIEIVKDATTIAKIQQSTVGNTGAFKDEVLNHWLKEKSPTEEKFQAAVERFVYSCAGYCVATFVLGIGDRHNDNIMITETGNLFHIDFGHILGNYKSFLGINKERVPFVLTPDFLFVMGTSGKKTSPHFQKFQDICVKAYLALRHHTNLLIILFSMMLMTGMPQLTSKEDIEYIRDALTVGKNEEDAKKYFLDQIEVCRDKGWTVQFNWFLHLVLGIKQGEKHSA
Chain of PIK3CB (Human) (P42338 whole entry, looked up): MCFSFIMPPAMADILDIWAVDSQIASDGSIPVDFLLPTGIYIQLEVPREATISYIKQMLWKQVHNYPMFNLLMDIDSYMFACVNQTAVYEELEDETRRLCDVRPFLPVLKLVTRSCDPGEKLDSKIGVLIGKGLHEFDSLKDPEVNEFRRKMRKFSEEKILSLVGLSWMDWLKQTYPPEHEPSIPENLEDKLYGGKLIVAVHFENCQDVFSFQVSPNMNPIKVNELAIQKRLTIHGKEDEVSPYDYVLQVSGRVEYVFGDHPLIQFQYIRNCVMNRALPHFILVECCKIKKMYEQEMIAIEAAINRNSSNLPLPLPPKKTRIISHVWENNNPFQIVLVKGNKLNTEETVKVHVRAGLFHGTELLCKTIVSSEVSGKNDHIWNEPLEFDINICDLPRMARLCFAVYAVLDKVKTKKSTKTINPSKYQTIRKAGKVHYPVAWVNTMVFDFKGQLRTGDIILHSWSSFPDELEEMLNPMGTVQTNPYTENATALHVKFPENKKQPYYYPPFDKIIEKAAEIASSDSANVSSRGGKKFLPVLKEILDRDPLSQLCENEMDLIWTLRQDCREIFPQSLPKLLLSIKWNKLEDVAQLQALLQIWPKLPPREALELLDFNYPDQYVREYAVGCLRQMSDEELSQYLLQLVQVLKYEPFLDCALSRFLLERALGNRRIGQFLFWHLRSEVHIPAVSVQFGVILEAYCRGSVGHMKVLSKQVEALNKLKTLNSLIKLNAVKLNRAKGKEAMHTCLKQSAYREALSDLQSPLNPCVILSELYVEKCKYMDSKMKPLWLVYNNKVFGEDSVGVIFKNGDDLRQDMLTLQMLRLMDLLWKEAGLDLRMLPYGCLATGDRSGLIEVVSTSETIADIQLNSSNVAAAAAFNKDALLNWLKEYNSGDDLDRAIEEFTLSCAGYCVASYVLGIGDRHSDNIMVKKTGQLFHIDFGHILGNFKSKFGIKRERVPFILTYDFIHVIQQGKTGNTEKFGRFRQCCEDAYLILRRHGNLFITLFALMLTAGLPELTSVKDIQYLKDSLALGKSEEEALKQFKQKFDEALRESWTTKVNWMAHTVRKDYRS
Chain of PIK3CD (Human) (O00329 whole entry, looked up): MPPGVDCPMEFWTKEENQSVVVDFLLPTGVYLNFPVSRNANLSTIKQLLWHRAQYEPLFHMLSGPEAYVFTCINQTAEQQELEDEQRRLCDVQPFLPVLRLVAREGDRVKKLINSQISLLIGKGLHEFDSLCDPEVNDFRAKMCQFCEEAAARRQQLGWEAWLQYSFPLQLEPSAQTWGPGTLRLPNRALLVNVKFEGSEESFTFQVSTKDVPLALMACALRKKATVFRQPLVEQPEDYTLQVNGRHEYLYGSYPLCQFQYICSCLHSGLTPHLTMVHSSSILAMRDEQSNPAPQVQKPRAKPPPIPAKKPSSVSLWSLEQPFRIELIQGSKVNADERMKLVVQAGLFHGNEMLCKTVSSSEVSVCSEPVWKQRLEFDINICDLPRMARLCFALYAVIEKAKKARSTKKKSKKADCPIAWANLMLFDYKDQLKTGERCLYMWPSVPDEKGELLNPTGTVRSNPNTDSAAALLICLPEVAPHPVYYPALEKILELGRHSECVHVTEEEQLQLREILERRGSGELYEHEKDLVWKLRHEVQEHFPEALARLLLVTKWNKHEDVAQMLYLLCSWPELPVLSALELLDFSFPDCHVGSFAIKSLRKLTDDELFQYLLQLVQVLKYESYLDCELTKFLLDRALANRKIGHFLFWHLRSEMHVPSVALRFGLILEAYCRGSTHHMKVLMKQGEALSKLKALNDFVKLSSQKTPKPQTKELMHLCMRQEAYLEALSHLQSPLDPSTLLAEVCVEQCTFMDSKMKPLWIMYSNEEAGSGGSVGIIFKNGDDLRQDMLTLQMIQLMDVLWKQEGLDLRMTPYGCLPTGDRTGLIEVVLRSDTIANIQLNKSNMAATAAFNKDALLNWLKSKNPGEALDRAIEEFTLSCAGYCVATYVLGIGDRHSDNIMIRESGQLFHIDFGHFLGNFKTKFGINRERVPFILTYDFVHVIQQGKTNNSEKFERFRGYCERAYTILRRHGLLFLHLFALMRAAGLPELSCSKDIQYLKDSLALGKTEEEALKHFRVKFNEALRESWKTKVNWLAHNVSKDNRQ

SMILES	IC50 (PIK3CB (Human)) [µM]	IC50 (PIK3CD (Human) [1]) [µM]	IC50 (PIK3CG (human)) [µM]	IC50 (PIK3CD (Human) [2]) [µM]
CC(C)n1c([C@H](C)NC(=O)c2c(N)nn3cccnc23)cc2cccc(C#Cc3cnn(C)c3)c2c1=O	5 to 10	5 to 10	0.5 to 1	
Cc1cc(C)n2nc(N)c(C(=O)N[C@@H](C)c3cc4cccc(C#Cc5cnn(C)c5)c4c(=O)n3-c3ccccc3)c2n1	5 to 10	5 to 10	0.1 to 0.5	
Cc1ccnc2c(C(=O)N[C@@H](C)c3cc4cccc(C#Cc5cnn(C)c5)c4c(=O)n3-c3ccccc3)cnn12	5 to 10	5 to 10	0.1 to 0.5	
Cc1cccc(-n2c([C@H](C)NC(=O)c3c(N)nn4cccnc34)cc3cccc(C#Cc4cnn(C)c4)c3c2=O)c1	5 to 10	5 to 10	0.1 to 0.5	
C[C@H](NC(=O)c1c(N)nn2cccnc12)c1cc2cccc(C#Cc3cnn(C)c3)c2c(=O)n1-c1ccc(F)cc1	5 to 10	5 to 10	0.001 to 0.1	
C#Cc1cccc2nc([C@H](C)NC(=O)c3nccnc3N)n(-c3ccccc3)c(=O)c12	0.001 to 0.5	0.001 to 0.5	0.001 to 0.1	
C[C@H](NC(=O)c1c(N)nn2cccnc12)c1cc2cccc(C#Cc3cnn(C)c3)c2c(=O)n1C1CCCCC1	5 to 10	5 to 10	1 to 5	
C[C@H](NC(=O)c1c(N)nn2cccnc12)c1cc2cccc(N)c2c(=O)n1-c1ccccc1	1 to 5	1 to 5	0.001 to 0.1	
C[C@H](NC(=O)c1c(N)nn2cccnc12)c1cc2cccc(C#CC3CCN(C)CC3)c2c(=O)n1-c1ccccc1	5 to 10	5 to 10	0.5 to 1	
Cc1nnc(C#Cc2cccc3cc([C@H](C)NC(=O)c4c(N)nn5cccnc45)n(-c4ccccc4)c(=O)c23)s1	1 to 5	1 to 5	0.1 to 0.5	
C[C@H](NC(=O)c1c(N)nn2cccnc12)c1cc2cccc(C=Cc3ccccc3)c2c(=O)n1-c1ccccc1	5 to 10	5 to 10	> 5	
C[C@H](NC(=O)c1c(N)nn2cccnc12)c1cc2cccc(C#Cc3cnn(C)c3)c2c(=O)n1-c1ccc(F)c(F)c1	5 to 10	5 to 10	0.1 to 0.5	
CC[C@H](NC(=O)c1c(N)nn2cccnc12)c1cc2cccc(C#Cc3cnn(C)c3)c2c(=O)n1-c1ccccc1	5 to 10	5 to 10	0.001 to 0.1	
Cc1ccn2nc(N)c(C(=O)N[C@@H](C)c3cc4cccc(C#Cc5cnn(C)c5)c4c(=O)n3-c3ccccc3)c2n1	1 to 5	5 to 10	0.001 to 0.1	
C[C@H](NC(=O)c1c(N)nn2cccnc12)c1nc2cccc(C#Cc3cnn(C)c3)c2c(=O)n1-c1ccccc1	5 to 10	5 to 10		0.1 to 0.5
C[C@H](NC(=O)c1c(N)nn2cccnc12)c1cc2cccc(C#Cc3cnn(C)c3)c2c(=O)n1-c1cccc(F)c1	5 to 10	5 to 10	0.001 to 0.1	
C[C@H](NC(=O)c1c(N)nn2cccnc12)c1cc2cccc(C#Cc3cnn(C)c3)c2c(=O)n1C	0.5 to 1	5 to 10	0.1 to 0.5	
Cc1ccc(-n2c([C@H](C)NC(=O)c3c(N)nn4cccnc34)cc3cccc(C#Cc4cnn(C)c4)c3c2=O)cc1	5 to 10	5 to 10	0.1 to 0.5	
CNS(=O)(=O)CCn1c([C@H](C)NC(=O)c2c(N)nn3cccnc23)cc2cccc(C#Cc3cnn(C)c3)c2c1=O	1 to 5	5 to 10	0.001 to 0.1	
C[C@H](NC(=O)c1c(N)nn2cccnc12)c1cc2cccc(C#Cc3cnn(C)c3)c2c(=O)n1CCS(=O)(=O)N(C)C	1 to 5	5 to 10	0.001 to 0.1	
Cn1cc(C#Cc2cccc3cc(CNC(=O)c4c(N)nn5cccnc45)n(-c4ccccc4)c(=O)c23)cn1	5 to 10	5 to 10	1 to 5	
Cc1ccccc1-n1c([C@H](C)NC(=O)c2c(N)nn3cccnc23)cc2cccc(C#Cc3cnn(C)c3)c2c1=O	5 to 10	5 to 10	0.001 to 0.1	

Reference: the Kinase Knowledgebase extract (Sharma et al. 2016)
